Measurements as given in patent US11179381B2, “Intranasal administration of physiologically active substances” (DUTCH RENEWABLE ENERGY B.V., priority 2017, dated 2021).

Tests used:
[1] = octanol/water partition coefficient; stated without a test; cited from earlier work
[2] = Blood folate after intranasal spray (Access Folate immunoassay); assay type: in vivo, human; conditions: from average increases of Tables 3 and 4 (3.5 wt. % nicotinamide)
Description: Briefly, a serum specimen was treated to release folate from endogenous binding proteins. After neutralization of the reaction mixture, folate-binding protein, mouse antifolate-binding protein, folic acid-alkaline phosphatase conjugate, and goat antimouse capture antibody coupled to paramagnetic particles were added to the reaction vessel. Folate in the sample competes with the folic acid-alkaline phosphatase conjugate for binding sites on a limited amount of folate-binding protein. Resulting complexes bind to the solid phase via mouse antifolate binding protein. […] The instrument used is a Beckman Coulter DXI 800.

[3] = Blood vitamin B12 after intranasal hydroxocobalmin, 75 μg dose (Access Vitamin B12 assay); conditions: from average increases of Tables 7 and 8 (75 μg dose, 5 wt. % nicotinamide)
[4] = Blood vitamin B12 after intranasal hydroxocobalmin, 500 μg dose (Access Vitamin B12 assay); conditions: from average increases of Tables 5 and 6 (500 μg dose, 5 wt. % nicotinamide)
[5] = Blood erythropoietin after intranasal rh-Erythropoietin (Access EPO immunoassay); assay type: in vivo, human; conditions: from average increases of Tables 9 and 10 (5 wt. % nicotinamide)
Description: As a control a composition comprising 400 μg rh-Erythropoietin was used.
An immunoassay (Access erythropoietin (EPO), Beckman Coultier Inc.) was used to quantify the erythropoietin. Briefly, testing was performed on the Beckman Coulter DxI 800 (Beckman Coulter Inc.). […] The light production is directly proportional to the concentration of EPO in the sample. The amount of analyte in the sample was determined from a stored, multi-point calibration curve. (Instruction manual: Beckman Coulter Access EPO, Beckman Coulter Access Immunoassay Systems, Beckman Coulter, Inc, Fullerton Calif. 2009).

Row | Increase in absorption relative to control (absence of nicotinamide) [2] | Molecule | log P [1] | Increase in absorption relative to control (absence of nicotinamide) [3] | Increase in absorption relative to control (absence of nicotinamide) [4] | Increase in absorption relative to control (absence of nicotinamide) [5]
1 | 184% | Nc1nc2ncc(CNc3ccc(C(=O)N[C@@H](CCC(=O)O)C(=O)O)cc3)nc2c(=O)[nH]1 [Folic acid, folic acid] | −0.02 |  |  | 
2 |  | C/C1=C2/[N-][C@H]([C@H](CC(N)=O)[C@@]2(C)CCC(=O)NC[C@@H](C)OP(=O)([O-])O[C@H]2[C@@H](O)[C@@H](n3cnc4cc(C)c(C)cc43)O[C@@H]2CO)[C@]2(C)N=C(/C(C)=C3N=C(/C=C4N=C1[C@@H](CCC(N)=O)C\4(C)C)[C@@H](CCC(N)=O)[C@]\3(C)CC(N)=O)[C@@H](CCC(N)=O)[C@]2(C)CC(N)=O.[Co+3].[OH-] [Hydroxocobalamin, hydroxocobalamin] | −0.9 | 192% | 203% | 
3 |  | Erythropoietin: rh-Erythropoietin, molecular weight 34000 | 0 |  |  | 300%
